The subject of assay [1] is differentiated HL60 cells. Put plainly: Arachidonic acid (AA) release in [3H]AA-labeled dHL60 cells. The following applies: for AA release stimulating activity (in words) / Effect of cPLA2-specific inhibitors AACOCF3 and MAFP on peptide-induced AA release: dHL60 cells; for AA release stimulating activity (in words): 10 μM; for Effect of cPLA2-specific inhibitors AACOCF3 and MAFP on peptide-induced AA release: inhibitor pretreatment 15 min, 1 μM peptide; for Folds of increase (% of total), arachidonic acid release: differentiated HL60 cells, 10 μM of peptide. The format is cell-based, human. As to the method: (§1) U937 (human histiocytic lymphoma cells), HL60 (human promyelocytic leukemia cells), Raw 264.7 (mouse macrophage), Jurkat (human acute T cell leukemia), PC12 (rat adrenal pheochromocytoma cells), 3Y1 (Rat embryonic fibroblasts), 3T3L1 (preadipocytes), and NCI-H292 (human mucoepidermoid pulmonary carcinoma cells) were obtained from the American Type Culture Collection (Rockville, Md.) and maintained as recommended. FPR- or FPRL1 expressing RBL-2H3 cells were cultured as described previously (He et al. J. Immunol. 2000. 165: 4598-4605). Cells were maintained at about 1×10^6 cells/ml under standard incubator conditions (humidified atmosphere, 95% air, 5% CO2, at 37° C.). HL60 cells were induced to differentiate into the granulocyte phenotype by adding dimethylsulfoxide (DMSO) (final concentration 1.25%, v/v) for 4 days to the culture medium, as described previously (Itoh et al. Blood. 1998. 92: 1432-1441).
For the initial screening of the PS-SPCLs, we measured the AA release stimulating activity of each peptide pool. Cultured dHL60 cells (10^7 cells/ml) were pre-labeled with 0.5 μCi/ml of (^3H)-AA in RPMI 1640 medium containing 10% FBS for 90 min at 37° C. in a humidified incubator supplied with 95% air and 5% CO2, as described previously (Bae et al. J. Immunol. 2000. 164: 4089-4096). The labeled cells were then washed twice with serum-free RPMI 1640 and incubated in RPMI 1640 medium containing 0.1% fatty acid-free BSA for 15 min at 37° C. After discarding the medium, the cells were stimulated with various concentrations of peptide for the indicated times. Radioactivity in the medium and of collected cells was determined with a liquid scintillation counter. When investigating the effects of inhibitors, cells were preincubated with the indicated concentrations of each inhibitor or vehicle for 15 min prior to stimulation.

Assay [2] relates to differentiated HL60 cells. Put plainly: [Ca2+]i increase in fura-2 loaded dHL60 cells. The class given is cell-based, human. The following applies: for [Ca^2+]i: differentiated HL60 cells, fura-2, 1 μM of peptide. As to the method: as §1
(§2) The level of [Ca^2+]i was determined using Grynkiewicz's method using fura-2/AM (Grynkiewicz et al. J. Biol. Chem. 1985. 260: 3440-3550). Briefly, prepared cells were incubated with 3 μM of fura-2/AM at 37° C. for 50 min in serum-free RPMI 1640 medium under continuous stirring. 2×10^6 cells were aliquoted for each assay in Ca^2+ free Locke's solution (154 mM NaCl, 5.6 mM KCl, 1.2 mM MgCl2, 5 mM HEPES, pH 7.3, 10 mM glucose, and 0.2 mM EGTA). Fluorescence changes were measured at the dual excitation wavelength of 340 nm and 380 nm, and the calculated fluorescence ratio was translated into [Ca^2+]i.

Assay [3] concerns human neutrophils. Put plainly: Superoxide generation (cytochrome c reduction) in human neutrophils. The class given is cell-based. The following applies: for Superoxide production: 1 μM of peptide, cytochrome c reduction. How it is done:
Peripheral blood leukocyte concentrates were donated by the Ulsan Red Cross Blood Center (Ulsan, Korea). PBMCs were separated on a Histopaque-1077 gradient. After two washings with HBSS without Ca^2+ and Mg^2+, the PBMCs were suspended in 10% FBS containing RPMI and incubated for 60 min at 37° C. to let the monocytes attach to the culture dish. Cells were washed 5 times with warmed RPMI medium to remove lymphocytes, and then the attached monocytes were collected, as described previously (Bae et al. J. Leukoc. Biol. 1999. 65: 241-248). Human neutrophils were isolated according to standard procedures; i.e., dextran sedimentation, hypotonic lysis of erythrocytes, and using a medium lymphocyte separation gradient, as described previously (Seo et al. J. Immunol. 1997. 158: 1895-1901). Isolated human leukocytes were then used promptly.
We determined superoxide anion generation by measuring cytochrome c reduction using a microtiter 96 well plate ELISA reader (Bio-Tekinstruments, EL312e, Winooski, Vt.) as described previously (Bae et al. Blood. 2001. 97: 2854-2862). Human neutrophils (1×10^6 cells/100 μl of RPMI 1640 medium per well of a 96-well plate) were preincubated with 50 μM of cytochrome c at 37° C. for 1 min and then incubated with the indicated peptide concentrations. Superoxide generation was determined from change in light absorption at 550 nm over 5 minutes at 1 min intervals.

For assay [4], the target named is T1, FPRL1 (Homo sapiens, UniProt P25090).
T1 construct: expressed in transfected cells; host or cells: RBL-2H3
T1 sequence (P25090 1-351): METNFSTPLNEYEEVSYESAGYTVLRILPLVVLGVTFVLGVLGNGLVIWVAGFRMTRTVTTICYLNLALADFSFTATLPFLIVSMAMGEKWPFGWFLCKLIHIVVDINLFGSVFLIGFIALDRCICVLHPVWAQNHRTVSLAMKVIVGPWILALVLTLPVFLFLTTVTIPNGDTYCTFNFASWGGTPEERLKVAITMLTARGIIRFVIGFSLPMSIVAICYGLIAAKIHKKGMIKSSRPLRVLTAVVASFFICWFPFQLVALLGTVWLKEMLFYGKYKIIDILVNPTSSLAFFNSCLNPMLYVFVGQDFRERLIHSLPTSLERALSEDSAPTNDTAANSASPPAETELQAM
Briefly: [Ca2+]i increase in FPRL1-expressing RBL-2H3 cells. The format is cell-based. The following applies: 10 μM of each peptide (FIG. 7). As to the method:
as §1, §2

Assay [5] has as its target T2, FPR (Homo sapiens, UniProt P21462).
T2 construct: expressed in transfected cells; host or cells: RBL-2H3
T2 sequence (P21462 1-350): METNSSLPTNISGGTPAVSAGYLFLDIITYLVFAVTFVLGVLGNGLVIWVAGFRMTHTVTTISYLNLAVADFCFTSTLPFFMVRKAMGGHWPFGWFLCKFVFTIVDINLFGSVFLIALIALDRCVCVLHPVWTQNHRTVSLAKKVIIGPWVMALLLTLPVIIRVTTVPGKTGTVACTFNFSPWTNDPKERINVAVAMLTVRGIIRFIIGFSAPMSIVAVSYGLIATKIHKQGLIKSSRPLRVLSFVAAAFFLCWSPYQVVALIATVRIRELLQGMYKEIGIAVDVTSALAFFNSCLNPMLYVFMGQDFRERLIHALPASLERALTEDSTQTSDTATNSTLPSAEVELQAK
Briefly: [Ca2+]i increase in FPR-expressing RBL-2H3 cells. The format is cell-based. The following applies: data not shown. As to the method: as §1, §2

For assay [6], the system named is undifferentiated HL60 cells. Put plainly: [Ca2+]i increase in undifferentiated HL60 cells. The format is cell-based, human. The following applies: for [Ca^2+]i increase in undifferentiated HL60 cells: peptides 10 μM (FIG. 8). As to the method: as §1, §2

Entries after “also recorded” stand apart in the source; their conditions may differ. Where no end group is shown, it is not given here.

Turning to MKYYKM-NH2 [Peptide P21], in assay [1], the “AA release stimulating activity (in words)” value was “most potent”; the “Effect of cPLA2-specific inhibitors AACOCF3 and MAFP on peptide-induced AA release” value is recorded as “blocked”; the “Folds of increase (% of total), arachidonic acid release” value (shortened to “Folds of increase (% of total)”) is reported as 2.86 ± 0.426 folds. The “[Ca^2+]i” value in assay [2] turned out to be 122 ± 15.7 nM. For the same substance, in assay [3], the “Superoxide generation (in words)” value was “stimulate superoxide generation in a concentration-dependent manner” and the Superoxide production was 12.7 ± 1.76 nmole/10^6 cells. In addition, in assay [4], the “[Ca^2+]i increase in FPRL1-expressing RBL-2H3 cells” value is on record as “induced calcium increase”. In assay [5], the “[Ca^2+]i in FPR-expressing RBL-2H3 cells / ligand for FPR” value is given as “not for FPR”. In addition, in assay [6], the “[Ca^2+]i increase in undifferentiated HL60 cells” value is “did not affect”.
MKYYYM-NH2 [Peptide P24]: in assay [1], the “AA release stimulating activity (in words)” value is on record as “most potent”; the “Effect of cPLA2-specific inhibitors AACOCF3 and MAFP on peptide-induced AA release” value was “blocked”; the “Folds of increase (% of total)” value was 2.93 ± 0.323 folds. In assay [2] (dHL60 cells, data not shown), the “Concentration of maximal activity, [Ca^2+]i increase” value is listed as “approximately 3 μM”. Also, the “[Ca^2+]i” value in assay [2] turned out to be 165 ± 23.4 nM. In addition, in assay [3], the “Superoxide generation (in words)” value is recorded as “stimulate superoxide generation in a concentration-dependent manner; also recorded: most potent” and the Superoxide production is 34.2 ± 0.48 nmole/10^6 cells. Also, the “[Ca^2+]i increase in FPRL1-expressing RBL-2H3 cells” value in assay [4] is recorded as “induced calcium increase”. Besides, the “[Ca^2+]i in FPR-expressing RBL-2H3 cells / ligand for FPR” value in assay [5] is given as “not for FPR”. Moreover, the “[Ca^2+]i increase in undifferentiated HL60 cells” value in assay [6] is “dramatically induced”. In addition, the “Effect of PTX on peptide-stimulated calcium signaling” value in assay [6] (undifferentiated HL60 cells, data not shown) is “partially inhibited”.
As to RKYHVM-NH2 [Peptide P14], in assay [1], the “AA release stimulating activity (in words)” value is reported as “most potent”; the “Effect of cPLA2-specific inhibitors AACOCF3 and MAFP on peptide-induced AA release” value was “blocked”; the “Folds of increase (% of total)” value is listed as 2.23 ± 0.403 folds. Besides, in assay [2], the “[Ca^2+]i” value was found to be 85 ± 9.5 nM. In assay [3], the “Superoxide generation (in words)” value was “stimulate superoxide generation in a concentration-dependent manner” and the Superoxide production is 9.3 ± 1.42 nmole/10^6 cells. For the same substance, the “[Ca^2+]i increase in FPRL1-expressing RBL-2H3 cells” value in assay [4] is on record as “induced calcium increase”. Besides, the “[Ca^2+]i in FPR-expressing RBL-2H3 cells / ligand for FPR” value in assay [5] is recorded as “not for FPR”. The “[Ca^2+]i increase in undifferentiated HL60 cells” value in assay [6] is reported as “did not affect”.

Values taken from patent US7622551B2, “Leukocyte stimulating peptides” (POSCO, priority 2004, dated 2009).
